Patent US10519247B2, “Targeting HER2 and HER3 with bispecific antibodies in cancerous cells” (Board of Regents, The University of Texas System, priority 2013, dated 2019)

Experiments:
Format in all cases: cell-based, human
SK-BR-3 cells [1] = assay: Proliferation assay (MTS), SK-BR-3; details: 5 days
Experimental: (§1) Cells were plated in 96 well plates at a density of 2,500 cells per well and incubated overnight. […] Antibodies were used at a concentration of 50 nM unless otherwise indicated. Dimethyl sulfoxide or phosphate buffered saline (PBS) were used as vehicle controls for lapatinib or HRG-β1/antibodies, respectively. After 5 days of incubation in a 37° C. 5% CO2 incubator, cell proliferation was quantitated using CellTiter 96 AQeous One Solution Proliferation Assay kit (Promega, catalog no. G3580) according to the manufacturer's instructions.

BT-474 cells [2] = assay: Proliferation assay (MTS), BT-474; details: 5 days
Experimental: as §1

HCC1419 cells = assay: Proliferation assay (MTS), HCC1419; details: 5 days
Experimental: as §1

SK-BR-3 cells [3] = assay: Immunoblotting of cell lysates, SK-BR-3
Experimental: (§2) Cells cultured to near confluence in 6 well plates were treated with lapatinib, HRG-β1 or antibodies as for proliferation assays. Following one or 24 hours incubation, cells were lysed using RIPA buffer (50 mM Tris, 150 mM NaCl, 0.5% sodium deoxycholate, 1% Triton X-100, 0.1% sodium dodecyl sulfate, 2 ug/mL aprotinin, 2 ug/mL leupeptin, 1 ug/mL pepstatin A, and 0.4 mg/mL pefabloc SC PLUS). Lysates were centrifuged for 20 minutes at 14,600 rpm at 4° C. and supernatants were collected. Protein concentrations in each lysate were determined using the BCA protein assay reagent (Pierce, catalog no. 23223). Total lysates were fractionated by SDS-PAGE and transferred onto polyvinylidene difluoride (PVDF) membranes (Millipore, catalog no. IPVH00010) or nitrocellulose membranes (Bio-Rad, catalog no 162.0145). Membranes were incubated with 5% bovine serum albumin in Tris-buffered saline with 0.1% Tween (TBST, pH 8.0) for 1 hour following transfer to block non-specific binding sites. Blocked membranes were incubated with primary antibodies overnight at 4° C. with agitation. Prior to incubation with the secondary antibodies conjugated to horseradish peroxidase, blots were washed three times (10 minutes/wash) with TB ST. Following incubation with secondary antibodies for 1 hour and washing, bound secondary antibody was detected using chemiluminescent detection regent (GE Healthcare, catalog no. RPN 2209/AF).

BT-474 cells [4] = assay: Immunoblotting of cell lysates, BT-474
Experimental: as §2

SK-BR-3 cells [5] = assay: Flow cytometry of cell surface HER2 and HER3, SK-BR-3; details: 1 μM lapatinib, 24 hours
Experimental: (§3) Cells were treated with 1 μM lapatinib (Lap), medium (Med) or vehicle control (DMSO) for 24 hours.
(§4) The methodology used to determine HER2 and HER3 levels by flowcytometry is as follows, unless otherwise indicated. Antibodies were labeled with either Alexa Fluor® 647 carboxylic acid, succinimidyl ester (Life Technologies, Catalog # A-20173) or Alexa Fluor® 488 carboxylic acid, succinimidyl ester (Life Technologies, Catalog # A-10235) using methods recommended by the manufacturer. Following the labeling reaction, antibodies were extensively dialyzed against PBS to remove unincorporated Alexa dye. Cells were seeded at a density of 100,000 cells per well in 24 well plates, incubated overnight, and subsequently treated with either 1 μM lapatinib or vehicle control (DMSO) for 24 hours at 37° C. in a CO2 incubator. […] Following incubation, cells were trypsinized, washed, and suspended in PBS. Stained cells were analyzed using a BD FACScalibur and data processed using FlowJo (Tree Star).

BT-474 cells [6] = assay: Flow cytometry of cell surface HER2 and HER3, BT-474; details: 1 μM lapatinib, 24 hours
Experimental: as §3, §4

SK-BR-3 cells [7] = assay: Fluorescence microscopy of intracellular trafficking; details: 50 nM
Excerpt: The combined pulse plus chase times are indicated on the left margin. Anti-HER3 or HER2/HER3 antibodies were detected with Alexa 555-labeled secondary antibody (pseudocolored red in overlay) and anti-EEA-1 antibody with Alexa 647-labeled secondary antibody (pseudocolored green in overlay). […] Scale bars=2 μm.
Cells were fixed, permeabilized and stained for LAMP-1. Anti-HER3 or HER2/HER3 antibodies were detected with Alexa 555-labeled secondary antibody (pseudocolored red in overlay) and anti-LAMP-1 antibody with Alexa 488-labeled secondary antibody (pseudocolored green in overlay). […] Scale bars=2 μm.
For fixation, cells were treated with 1.7% (w/v) paraformaldehyde for 10 minutes at 37° C. and then permeabilized with 0.05% (v/v) saponin for 10 minutes at room temperature in PBS. […] After blocking for 30 minutes with goat serum (Sigma-Aldrich, catalog no. G6767), bound primary antibodies were detected by incubating cells with the following secondary antibody conjugates for 25 minutes at room temperature: Alexa 555-labeled goat anti-human IgG (H+L) (Life Technologies, catalog no. A21433), Alexa 647-labeled goat anti-mouse IgG (H+L) (Life Technologies, catalog no. A21236) and Alexa 488-labeled goat anti-rabbit IgG (H+L) (Life Technologies, catalog no. A11034). […]

[8] = 50 nM antibody + heregulin 6.25 nM
[9] = lapatinib 50 nM-1 μM, no heregulin
[10] = 1 μM lapatinib + heregulin 6.25 nM
[11] = 50 nM antibody + 1 μM lapatinib + heregulin 6.25 nM
[12] = 50 nM antibody, no heregulin, no lapatinib
[13] = 50 nM antibody, one hour, versus trastuzumab, pertuzumab, TAb6 or PAb6, not sustained at 24 hours

With heregulin [reference compound] the “proliferation in the presence of heregulin alone” value (SK-BR-3 cells [1]; [8]) was “reduced proliferation”, the “proliferation in the presence of heregulin alone” value (BT-474 cells [2]; heregulin 6.25 nM) was “trend towards heregulin-stimulated proliferation” and the “proliferation in the presence of heregulin alone” value (HCC1419 cells; heregulin 6.25 nM) was “increased proliferation”.

For CS(=O)(=O)CCNCc1ccc(-c2ccc3ncnc(Nc4ccc(OCc5cccc(F)c5)c(Cl)c4)c3c2)o1 [lapatinib, reference compound], the “proliferation, lapatinib alone” value (SK-BR-3 cells [1]; [9]) was “inhibition of proliferation”, the “proliferation, lapatinib plus heregulin” value (SK-BR-3 cells [1]; lapatinib + heregulin 6.25 nM) was “growth inhibition was ablated” and the “proliferation, lapatinib alone” value (BT-474 cells [2]; [9]) was “inhibition of proliferation”. For the same molecule, the “proliferation, lapatinib plus heregulin” value (BT-474 cells [2]; lapatinib + heregulin 6.25 nM) was “growth inhibition was ablated”, the “inhibition of HER3, Akt and Erk phosphorylation, lapatinib plus heregulin” value (SK-BR-3 cells [3]; [10]) was “partially reversed” and the “HER3, Akt and Erk phosphorylation, lapatinib alone” value (SK-BR-3 cells [3]; 1 μM lapatinib, 1 or 24 hours) was “potent inhibition”. For the same molecule, the “inhibition of HER3, Akt and Erk phosphorylation, lapatinib plus heregulin” value (BT-474 cells [4]; [10]) was “partially reversed”, the “HER3, Akt and Erk phosphorylation, lapatinib alone” value (BT-474 cells [4]; 1 μM lapatinib, 1 or 24 hours) was “potent inhibition” and the “HER2 levels on the plasma membrane” value (SK-BR-3 cells [5]) was “upregulation”. For the same molecule, the “HER3 levels on the plasma membrane” value (SK-BR-3 cells [5]) was “upregulation”, the “HER2 levels on the plasma membrane” value (BT-474 cells [6]) was “not upregulated” and the “HER3 levels on the plasma membrane” value (BT-474 cells [6]) was “upregulation”.

B1: Ab6: bivalent anti-HER3 antibody which competes with heregulin for binding to HER3 (antibody, V domains shown)
VH: QVQLLESGGGLVQPGGSLRLSCAASGFTFSHYVMAWVRQAPGKGLEWVSSISSSGGWTLYADSVKGRFTISRDNSKNTLYLQMNSLRAEDTAVYYCTRGLKMATIFDYWGQGTLVTVSS
VL: DIQLTQPASVSGSPGQSITISCTGTSSDVGSYNVVSWYQQHPGKAPKLIIYEVSQRPSGVSNRFSGSKSGNTASLTISGLQTEDEADYYCCSYAGSSIFVIFGGGTKVTVL
In the case of B1, the “proliferation in the presence of heregulin and lapatinib” value (SK-BR-3 cells [1]; [11]) is reported as “anti-proliferative effects”, the proliferation (SK-BR-3 cells [1]; [12]) is reported as “reduced proliferation” and the “proliferation in the presence of heregulin and lapatinib” value (BT-474 cells [2]; [11]) is reported as “anti-proliferative effects”. For the same molecule, the “proliferation in the presence of heregulin” value (BT-474 cells [2]; [8]) was “ablated the inhibitory effects”, the proliferation (BT-474 cells [2]; [12]) was “the effects were not significant” and the “proliferation in the presence of heregulin and lapatinib” value (HCC1419 cells; [11]) was “anti-proliferative effects”. The “proliferation in the presence of heregulin” value (HCC1419 cells; [8]) was “ablated the inhibitory effects”, the proliferation (HCC1419 cells; [12]) was “reduced proliferation” and the “pAkt levels in the presence of heregulin” value (SK-BR-3 cells [3]; 50 nM antibody + heregulin 6.25 nM, 24 hours) was “a reduction”. For the same molecule, the “pErk levels at one hour” value (SK-BR-3 cells [3]; [13]) was “lower”, the “pErk levels at one hour” value (BT-474 cells [4]; [13]) was “lower” and the “localization following 15 minutes of treatment” value (SK-BR-3 cells [7]) was “internalized into early endosomes”. The “localization within one hour of treatment” value (SK-BR-3 cells [7]; 15 minutes pulse, 45 minutes chase) was “present in LAMP-1+ lysosomes”.
